Source: PubChem BioAssay (NCI)
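1) Cells in 96-well plates. 2) Compound, 48 h, 5 concentrations. 3) Linear interpolation between surrounding doses. 4) Unreached endpoint = highest concentration. The concentration for full growth arrest is given as TGI.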

Assays:
Assay in all cases: DTP human tumour cell line panel, 48 h
NCI-H460 lung = test system: NCI-H460 lung
OVCAR-3 ovarian = test system: OVCAR-3 ovarian
SNB-19 CNS = test system: SNB-19 CNS
HOP-92 NSCLC = test system: HOP-92 NSCLC
SF-268 CNS = test system: SF-268 CNS
NCI/ADR-RES ovarian = test system: NCI/ADR-RES ovarian
OVCAR-5 ovarian = test system: OVCAR-5 ovarian
MCF7 breast = test system: MCF7 breast
LOX IMVI melanoma = test system: LOX IMVI melanoma
UACC-62 melanoma = test system: UACC-62 melanoma
PC-3 prostate = test system: PC-3 prostate
SNB-75 CNS = test system: SNB-75 CNS
SK-MEL-5 melanoma = test system: SK-MEL-5 melanoma
HOP-62 NSCLC = test system: HOP-62 NSCLC
COLO 205 colon = test system: COLO 205 colon
MOLT-4 leukemia = test system: MOLT-4 leukemia
MDA-MB-231 breast = test system: MDA-MB-231 breast
A549 NSCLC = test system: A549 NSCLC
HT29 colon = test system: HT29 colon
SN12C renal = test system: SN12C renal
786-0 renal = test system: 786-0 renal
EKVX NSCLC = test system: EKVX NSCLC
MDA-N = test system: MDA-N
U251 CNS = test system: U251 CNS
SK-MEL-28 melanoma = test system: SK-MEL-28 melanoma
RPMI-8226 leukemia = test system: RPMI-8226 leukemia
HS 578T breast = test system: HS 578T breast
RXF 393 renal = test system: RXF 393 renal
M14 melanoma = test system: M14 melanoma
TK-10 renal = test system: TK-10 renal
ACHN renal = test system: ACHN renal
K-562 leukemia = test system: K-562 leukemia
DU-145 prostate = test system: DU-145 prostate
IGROV1 ovarian = test system: IGROV1 ovarian
SR leukemia = test system: SR leukemia
UACC-257 melanoma = test system: UACC-257 melanoma
SK-OV-3 ovarian = test system: SK-OV-3 ovarian
HL-60(TB) leukemia = test system: HL-60(TB) leukemia
SF-295 CNS = test system: SF-295 CNS
HCC-2998 colon = test system: HCC-2998 colon
SW-620 colon = test system: SW-620 colon
SF-539 CNS = test system: SF-539 CNS
OVCAR-4 ovarian = test system: OVCAR-4 ovarian
KM12 colon = test system: KM12 colon
SK-MEL-2 melanoma = test system: SK-MEL-2 melanoma
NCI-H23 lung = test system: NCI-H23 lung
NCI-H226 lung = test system: NCI-H226 lung
NCI-H522 lung = test system: NCI-H522 lung
HCT-15 colon = test system: HCT-15 colon
MDA-MB-435 = test system: MDA-MB-435
UO-31 renal = test system: UO-31 renal
HCT-116 colon = test system: HCT-116 colon
MALME-3M melanoma = test system: MALME-3M melanoma
T-47D breast = test system: T-47D breast
CCRF-CEM leukemia = test system: CCRF-CEM leukemia
OVCAR-8 ovarian = test system: OVCAR-8 ovarian

COC(=O)C(C)(C)[C@@H]1OC(=O)N(S(=O)(=O)c2c(C)cc(C)cc2C)[C@H]1C(C)C
TGI (NCI-H460 lung): > 100 µM | TGI (OVCAR-3 ovarian): > 100 µM | TGI (SNB-19 CNS): > 100 µM | TGI (HOP-92 NSCLC): 98.2 µM | TGI (SF-268 CNS): > 100 µM | TGI (NCI/ADR-RES ovarian): > 100 µM | TGI (OVCAR-5 ovarian): > 100 µM | TGI (MCF7 breast): > 100 µM | TGI (LOX IMVI melanoma): > 100 µM | TGI (UACC-62 melanoma): > 100 µM | TGI (PC-3 prostate): > 100 µM | TGI (SNB-75 CNS): > 100 µM | TGI (SK-MEL-5 melanoma): > 100 µM | TGI (HOP-62 NSCLC): > 100 µM | TGI (COLO 205 colon): > 100 µM | TGI (MOLT-4 leukemia): > 100 µM | TGI (MDA-MB-231 breast): > 100 µM | TGI (A549 NSCLC): > 100 µM | TGI (HT29 colon): > 100 µM | TGI (SN12C renal): > 100 µM | TGI (786-0 renal): > 100 µM | TGI (EKVX NSCLC): > 100 µM | TGI (MDA-N): > 100 µM | TGI (U251 CNS): > 100 µM | TGI (SK-MEL-28 melanoma): > 100 µM | TGI (RPMI-8226 leukemia): > 100 µM | TGI (HS 578T breast): > 100 µM | TGI (RXF 393 renal): > 100 µM | TGI (M14 melanoma): > 100 µM | TGI (TK-10 renal): > 100 µM | TGI (ACHN renal): > 100 µM | TGI (K-562 leukemia): > 100 µM | TGI (DU-145 prostate): > 100 µM | TGI (IGROV1 ovarian): > 100 µM | TGI (SR leukemia): > 100 µM | TGI (UACC-257 melanoma): > 100 µM | TGI (SK-OV-3 ovarian): > 100 µM | TGI (HL-60(TB) leukemia): 84.5 µM | TGI (SF-295 CNS): > 100 µM | TGI (HCC-2998 colon): > 100 µM | TGI (SW-620 colon): > 100 µM | TGI (SF-539 CNS): > 100 µM | TGI (OVCAR-4 ovarian): > 100 µM | TGI (KM12 colon): > 100 µM | TGI (SK-MEL-2 melanoma): > 100 µM | TGI (NCI-H23 lung): > 100 µM | TGI (NCI-H226 lung): > 100 µM | TGI (NCI-H522 lung): > 100 µM | TGI (HCT-15 colon): > 100 µM | TGI (MDA-MB-435): > 100 µM | TGI (UO-31 renal): > 100 µM | TGI (HCT-116 colon): > 100 µM | TGI (MALME-3M melanoma): > 100 µM | TGI (T-47D breast): > 100 µM | TGI (CCRF-CEM leukemia): > 100 µM | TGI (OVCAR-8 ovarian): > 100 µM
